{"source": "patent US20240293401A1", "about": "“COMBINATION THERAPY WITH AN LXR AGONIST AND AN INHIBITOR COMPOUND” (Asteroid Therapeutics, priority 2023, published 2024)", "key": {"[1]": {"system": "glioblastoma, prostate cancer, and breast cancer cells", "conditions": "cited from earlier work"}, "Abca1": {"system": "Abca1", "test": "Mouse study: expression of the LXR target gene Abca1 in the brain after 5 days of daily dosing", "assay_type": "in vivo, mice", "conditions": "for Average ABCA1 FC vs. vehicle (brain): daily for 5 days, 4 hours post dose on day 5", "experimental": "(§1) Mice were dosed daily with either: • a. the LXR agonist GW3965 orally at specified concentrations for 5-days, • b. the LXR inverse agonist SR9238 intraperitoneally at specified concentrations for 5-days, or • c. both drugs simultaneously at specified concentrations for 5-days.\n(§2) Four hours after the final treatment on day 5, mice were euthanized and tissues were collected."}, "[2]": {"test": "Mouse study: liver triglycerides after 5 days of daily dosing", "assay_type": "in vivo, mice", "conditions": "for Average liver trig: daily for 5 days, 4 hours post dose on day 5", "experimental": "as §1, §2"}, "β-cells": {"system": "β-cells", "conditions": "cited from earlier work"}, "[3]": {"conditions": "SR9238 30 mg/kg intraperitoneally"}, "[4]": {"conditions": "SR9238 60 mg/kg intraperitoneally"}}}
{"molecule": "CC(C)CC[C@@H](O)[C@@H](C)[C@H]1CC[C@H]2[C@@H]3CC=C4C[C@@H](O)CC[C@]4(C)[C@H]3CC[C@]12C", "note": "[22(R)-hydroxycholesterol]", "values": [{"measurement": "proliferation of glioblastoma, prostate cancer, and breast cancer cells (in words)", "setting": "[1]", "result": "suppress the proliferation"}]}
{"molecule": "CCOC(=O)c1ccc(CN(Cc2ccc(-c3cccc(S(C)(=O)=O)c3)cc2)S(=O)(=O)c2c(C)cc(C)cc2C)o1", "note": "[SR9238]", "values": [{"measurement": "Average ABCA1 FC vs. vehicle (brain)", "setting": "Abca1; [3]", "result": 0.9}, {"measurement": "Average ABCA1 FC vs. vehicle (brain)", "setting": "Abca1; [4]", "result": 1.2}, {"measurement": "Average liver trig", "setting": "[2]; [3]", "result": 7.78, "unit": "mg/g"}, {"measurement": "Average liver trig", "setting": "[2]; [4]", "result": 8.4, "unit": "mg/g"}]}
{"molecule": "O=S(=O)(c1ccccc1)N(CC(F)(F)F)c1ccc(C(O)(C(F)(F)F)C(F)(F)F)cc1", "note": "[T0901317]", "values": [{"measurement": "effect on β-cells (in words)", "setting": "β-cells", "result": "interfere with mitochondrial metabolism and metabolism-independent processes in β-cells"}]}
{"molecule": "O=C(O)Cc1cccc(OCCCN(Cc2cccc(C(F)(F)F)c2Cl)CC(c2ccccc2)c2ccccc2)c1", "note": "[GW-3965]", "values": [{"measurement": "Average ABCA1 FC vs. vehicle (brain)", "setting": "Abca1; GW-3965 15 mg/kg orally", "result": 1.6}, {"measurement": "Average ABCA1 FC vs. vehicle (brain)", "setting": "Abca1; GW-3965 30 mg/kg orally", "result": 2.0}, {"measurement": "Average ABCA1 FC vs. vehicle (brain)", "setting": "Abca1; GW-3965 60 mg/kg orally", "result": 2.8}, {"measurement": "expression of the LXR target gene Abca1 (in words)", "setting": "Abca1; GW-3965 alone, 5 days of daily treatment, brains of mice", "result": "increased expression"}, {"measurement": "Average liver trig", "setting": "[2]; GW-3965 15 mg/kg orally", "result": 16.3, "unit": "mg/g"}, {"measurement": "Average liver trig", "setting": "[2]; GW-3965 30 mg/kg orally", "result": 18.4, "unit": "mg/g"}, {"measurement": "Average liver trig", "setting": "[2]; GW-3965 60 mg/kg orally", "result": 29.2, "unit": "mg/g"}, {"measurement": "liver triglyceride concentrations (in words)", "setting": "[2]; GW-3965 alone, 5 days of daily treatment", "result": "increased liver triglyceride concentrations"}, {"measurement": "effect on β-cells (in words)", "setting": "β-cells", "result": "interfere with mitochondrial metabolism and metabolism-independent processes in β-cells"}]}
{"molecule": "CC(C)[C@@H](O)CC[C@@H](C)[C@H]1CC[C@H]2[C@@H]3CC=C4C[C@@H](O)CC[C@]4(C)[C@H]3CC[C@]12C", "note": "[24(S)-hydroxycholesterol]", "values": [{"measurement": "proliferation of glioblastoma, prostate cancer, and breast cancer cells (in words)", "setting": "[1]", "result": "suppress the proliferation"}]}
